From PMC3898741, “Substituted imidazopyridazines are potent and selective inhibitors of Plasmodium falciparum calcium-dependent protein kinase 1 (PfCDPK1)” (Bioorganic & Medicinal Chemistry Letters, 2013)
Read-outs that look alike come from different tables or passages of the source.

Tests used:
P. falciparum parasite = assay: In vitro P. falciparum parasite growth (FACS, hydroethidine); format: cell-based, Plasmodium falciparum; settings: for inhibition at 1 µM / EC50: Plasmodium falciparum; for inhibition at 1 µM: at 1 μM inhibitor concentration
Description: [15] P. falciparum EC50 values were measured using an in vitro model of malaria parasite growth. Compounds were diluted into 2% DMSO and added to parasites 24 h post-invasion in a 96-well plate and incubated under static conditions. Cells were recovered 48 h later and processed for FACS analysis using hydroethidine to stain parasite DNA. Data was acquired using CellQuest Pro software on a FACSCalibur (Becton Dickinson). Growth inhibition was calculated using the following formula: % growth inhibition = (1 − [parasitaemia of culture/parasitaemia of control culture]) ×100.

PfCDPK1 = PfCDPK1 (Plasmodium falciparum, UniProt P62344); assay: PfCDPK1 enzyme inhibition (Kinase-Glo ATP depletion); format: biochemical; settings: for IC50: isolated recombinant enzyme
PfCDPK1, sequence (P62344 whole entry, the tested form may be a part): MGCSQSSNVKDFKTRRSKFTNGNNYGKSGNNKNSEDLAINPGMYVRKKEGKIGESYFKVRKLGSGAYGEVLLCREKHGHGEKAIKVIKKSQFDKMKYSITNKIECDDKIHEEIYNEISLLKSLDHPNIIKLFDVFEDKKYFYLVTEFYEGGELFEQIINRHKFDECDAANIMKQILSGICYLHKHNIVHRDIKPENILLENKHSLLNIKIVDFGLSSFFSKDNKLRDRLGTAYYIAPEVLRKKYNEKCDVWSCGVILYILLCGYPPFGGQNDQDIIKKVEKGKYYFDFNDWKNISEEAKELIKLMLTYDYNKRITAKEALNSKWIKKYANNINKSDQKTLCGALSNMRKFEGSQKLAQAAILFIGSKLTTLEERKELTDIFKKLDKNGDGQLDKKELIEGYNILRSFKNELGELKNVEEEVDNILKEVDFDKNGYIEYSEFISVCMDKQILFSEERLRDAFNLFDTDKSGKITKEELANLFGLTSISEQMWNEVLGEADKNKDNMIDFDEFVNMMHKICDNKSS
Description: [10] A high throughput screen of 35,422 compounds comprising a diverse set of small molecules from a variety of commercial suppliers and 8100 kinase-focused compounds (BioFocus) was performed using Kinase-Glo® (Promega) to measure ATP depletion resulting from the kinase reaction. Full length recombinant PfCDPK1 was incubated with MyoA-Tail domain Interacting Protein (MTIP) substrate and the amount of ATP remaining after 1 h was measured by luminescence using a Pherastar plate reader (BMG Labtech).

[1] = Mouse liver microsome stability (MLM); format: in vitro ADME; settings: % remaining at 30 min, mouse microsomes
Measured log D = format: physicochemical
Excerpt: Table 6 In vitro ADME and in vivo efficacy data for selected compounds | column: 17; 24; 27; 28

P. berghei = assay: 4-Day Peters test in P. berghei mouse model; format: in vivo; settings: oral once daily 50 mg/kg, 4 days, relative to vehicle
Description: In advance of in vivo testing, it was shown that the inhibitors retained potency against the isolated P. berghei CDPK1 enzyme.[16] Compounds were dosed with an oral, once daily 50 mg/kg regime over 4 days in the standard Peters test, and their in vitro ADME and in vivo efficacy data is shown in Table 6.

[2] = Human liver microsome stability (HLM); format: in vitro ADME; settings: % remaining at 30 min, human microsomes
[3] = target: 73-member human kinase panel; assay: Kinase selectivity against 73-member human kinase panel; format: biochemical; settings: 1 μM inhibitor concentration; for Kinases hit in human kinase panel: 73-member panel
Description: [17] Kinase selectivity profiling was carried out at the National Centre for Protein Kinase Profiling in the MRC Protein Phosphorylation Unit at the University of Dundee.

Mouse pharmacokinetics = format: in vivo
PAMPA permeability = format: in vitro ADME
[4] = in vitro parasite growth, 48 h, read-out: P. falciparum EC50

Compound | IC50 (PfCDPK1) [nM] | EC50 (P. falciparum parasite; [4]) [nM] | further results
NC(=O)c1ccc(-c2cnc3ccc(NCCc4cccnc4)nn23)cc1 [Compound 1] | 59 | – | inhibition at 1 µM (P. falciparum parasite): 99%
NC(=O)c1ccc(-c2cnc3ccc(NCCc4ccccn4)nn23)cc1 [Compound 2] | 61 | – | inhibition at 1 µM (P. falciparum parasite): 99%
CC(=O)Nc1cccc(-c2cnc3ccc(NCCc4ccccn4)nn23)c1 [Compound 3] | 66 | – | inhibition at 1 µM (P. falciparum parasite): 35%
N#Cc1ccc(-c2cnc3ccc(NCCc4cccnc4)nn23)cc1 [Compound 4] | 71 | – | inhibition at 1 µM (P. falciparum parasite): 98%
Fc1cccc(-c2cnc3ccc(NCCc4cccnc4)nn23)c1 [Compound 5] | 80 | – | inhibition at 1 µM (P. falciparum parasite): 6%
CC(=O)Nc1cccc(-c2cnc3ccc(N[C@H]4CC[C@H](N)CC4)nn23)c1 [Compound 6] | 11 | 320 | –
CN1CCC(Nc2ccc3ncc(-c4cccc(NC(=O)C5CC5)c4)n3n2)CC1 [Compound 7] | 22 | 560 | –
COC(=O)Nc1cccc(-c2cnc3ccc(NC4CCN(C)CC4)nn23)c1 [Compound 8] | 18 | 750 | –
CC(C)CCNC(=O)c1ccc(-c2cnc3ccc(N[C@H]4CC[C@H](N)CC4)nn23)cc1 [Compound 9] | 16 | 460 | EC50 against the P. falciparum parasite (P. falciparum parasite): sub-micromolar
CC(C)CCNC(=O)c1ccc(-c2cnc3ccc(NC4CCN(C)CC4)nn23)cc1 [Compound 10] | 23 | 780 | EC50 against the P. falciparum parasite (P. falciparum parasite): sub-micromolar
CC(C)CCNc1ccc(-c2cnc3ccc(NC4CCN(C)CC4)nn23)cn1 [Compound 17] | – | 400 | MLM (% rem) [1]: 63 % rem; logD (Measured log D): 3.4; Reduction in parasitaemia in vivo (P. berghei): 46%; EC50 (P. falciparum parasite; P. falciparum, read-out: Cell potency): < 500 nM; HLM (% rem) [2]: 85 % rem; Kinases hit in human kinase panel [3]: MKK1, RSK1, PKD1, CHK2, Aurora B, NUAK1, GCK, MLK1, Src, Lck, YES1, and VEGFR; Clearance (in words) (Mouse pharmacokinetics): moderate to high clearance; Oral bioavailability in mouse (in words) (Mouse pharmacokinetics): good oral bioavailability; i.v. t1/2 (Mouse pharmacokinetics): 2 h; Oral %F (Mouse pharmacokinetics; oral): 84%
CCCCNc1ccc(-c2cnc3ccc(NC4CCN(C)CC4)nn23)cn1 [Compound 18] | 14 | 430 | –
CN1CCC(Nc2ccc3ncc(-c4ccc(NCC5CC5)nc4)n3n2)CC1 [Compound 19] | 36 | 450 | –
COCCNc1ccc(-c2cnc3ccc(NC4CCN(C)CC4)nn23)cn1 [Compound 20] | 25 | 670 | –
CC(C)CCNc1cc(-c2cnc3ccc(NC4CCN(C)CC4)nn23)ccn1 [Compound 21] | 88 | – | Loss in potency against the enzyme in comparison to 17 (PfCDPK1; PfCDPK1): sevenfold loss in potency
CC(C)CCNc1ccc(-c2cnc3ccc(NC4CCN(C)C4)nn23)cn1 (stereo not shown) [Compound 24] | 23 | 170 | Papp (PAMPA permeability): 11.4 ×10⁻⁶ cm/s; MLM (% rem) [1]: 74 % rem; logD (Measured log D): 3.5; Reduction in parasitaemia in vivo (P. berghei): 30%; HLM (% rem) [2]: 63 % rem; Selectivity profile against panel of human kinases [3]: good selectivity profiles; Kinases hit in human kinase panel [3]: RSK1 and HER4
CC(C)CCNc1ccc(-c2cnc3ccc(NC4CN(C)C4)nn23)cn1 [Compound 25] | 89 | 930 | –
CC(C)CCNc1ccc(-c2cnc3ccc(N4CCN(C)CC4)nn23)cn1 [Compound 26] | 175 | 2400 | –
CC(C)CCNc1ccc(-c2cnc3ccc(N4CCC(N(C)C)CC4)nn23)cn1 [Compound 27] | 44 | 570 | Papp (PAMPA permeability): 13.7 ×10⁻⁶ cm/s; MLM (% rem) [1]: 84 % rem; logD (Measured log D): 3.2; Reduction in parasitaemia in vivo (P. berghei): 7%; HLM (% rem) [2]: 80 % rem
CC(C)CCNc1ccc(-c2cnc3ccc(N4CCC(N)CC4)nn23)cn1 [Compound 28] | 13 | 140 | Papp (PAMPA permeability): 5.5 ×10⁻⁶ cm/s; MLM (% rem) [1]: 90 % rem; logD (Measured log D): 2.5; Reduction in parasitaemia in vivo (P. berghei): 11%; HLM (% rem) [2]: 90 % rem; Selectivity profile against panel of human kinases [3]: good selectivity profiles; Kinases hit in human kinase panel [3]: RSK1, CAMK1, PHK, NUAK1, and HER4
CC(C)CCNc1ccc(-c2cnc3ccc(NC4CCNCC4)nn23)cn1 [Compound 29] | 15 | 240 | –
CC(C)CCOc1ccc(-c2cnc3ccc(N[C@H]4CC[C@H](N)CC4)nn23)cn1 [Compound 30] | 170 | 540 | –
CC(C)CCNc1ncc(-c2cnc3ccc(NC4CCN(C)CC4)nn23)cn1 [Compound 31] | 14 | 470 | –
CC(C)CCNc1ncc(-c2cnc3ccc(N[C@H]4CC[C@H](N)CC4)nn23)cn1 [Compound 32] | 16 | 170 | –
CC(C)CCNc1nccc(-c2cnc3ccc(NC4CCN(C)CC4)nn23)n1 [Compound 33] | 424 | – | –
